PubChem BioAssay AID1918937 (Molecular Pharmacology Branch, DTP, NCI, 2023)

System: 521955-158-R2-J5-PDC complex spheroid viability
Test: Anticancer human tumor 521955-158-R2-J5-PDC patient-derived pancreatic carcinoma cell line growth inhibition
Conditions: for IC50: curve of first compound; for viability, T/C: stronger effect = lower value; active means viability on the fitted dose curve at most 10% of control; inactive means the rest
Procedure, shortened: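 Multicellular complex spheroids of tumor cells with human endothelial cells (HUVEC) and mesenchymal stem cells; the LSD1 inhibitor iadademstat was combined with standard-of-care or investigational agents. Top concentration at or near clinical Cmax, half-log dilutions; final DMSO ≤0.25%.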

[1] = second compound 0.1 µM, first compound 0.000316 µM
[2] = second compound 0.1 µM, first compound 0.001 µM
[3] = second compound 0.1 µM, first compound 0.00316 µM
[4] = second compound 0.1 µM, first compound 0.01 µM
[5] = second compound 0.1 µM, first compound 0.0316 µM
[6] = second compound 0.1 µM, first compound 0.1 µM
[7] = second compound 0.316 µM, first compound 0.000316 µM
[8] = second compound 0.316 µM, first compound 0.001 µM
[9] = second compound 0.316 µM, first compound 0.00316 µM
[10] = second compound 0.316 µM, first compound 0.01 µM
[11] = second compound 0.316 µM, first compound 0.0316 µM
[12] = second compound 0.316 µM, first compound 0.1 µM
[13] = second compound 1 µM, first compound 0.000316 µM
[14] = second compound 1 µM, first compound 0.001 µM
[15] = second compound 1 µM, first compound 0.00316 µM
[16] = second compound 1 µM, first compound 0.01 µM
[17] = second compound 1 µM, first compound 0.0316 µM
[18] = second compound 1 µM, first compound 0.1 µM
[19] = second compound 3.16 µM, first compound 0.000316 µM
[20] = second compound 3.16 µM, first compound 0.001 µM
[21] = second compound 3.16 µM, first compound 0.00316 µM
[22] = second compound 3.16 µM, first compound 0.01 µM
[23] = second compound 3.16 µM, first compound 0.0316 µM
[24] = second compound 3.16 µM, first compound 0.1 µM
[25] = second compound 10 µM, first compound 0.000316 µM
[26] = second compound 10 µM, first compound 0.001 µM
[27] = second compound 10 µM, first compound 0.00316 µM
[28] = second compound 10 µM, first compound 0.01 µM
[29] = second compound 10 µM, first compound 0.0316 µM
[30] = second compound 10 µM, first compound 0.1 µM
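Further: spheroids exposed to agents for seven days.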
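Wherever viability, T/C is given: percent of DMSO vehicle control luminescence viability.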

CC(C)CC(NC(=O)C(Cc1ccccc1)NC(=O)c1cnccn1)B(O)O (stereo not given) + NC1CCC(NC2CC2c2ccccc2)CC1
0.491 nM: IC50 (second compound 0.1 µM)
0.468 nM: IC50 (second compound 0.316 µM)
0.512 nM: IC50 (second compound 10 µM)
inactive: viability, T/C [1] 80.7% | viability, T/C [7] 75.7% | viability, T/C [13] 84.9% | viability, T/C [19] 88.1% | viability, T/C [25] 82.9%
active: viability, T/C [2] 0.24% | viability, T/C [3] 0.24% | viability, T/C [4] 0.06% | viability, T/C [5] 0.05% | viability, T/C [6] 0.94% | viability, T/C [8] 0.23% | viability, T/C [9] 0.12% | viability, T/C [10] 0.04% | viability, T/C [11] 0.07% | viability, T/C [12] 0.21% | viability, T/C [14] 0.24% | viability, T/C [15] 0.06% | viability, T/C [16] 0.04% | viability, T/C [17] 0.09% | viability, T/C [18] 0.2% | viability, T/C [20] 0.24% | viability, T/C [21] 0.12% | viability, T/C [22] 0.04% | viability, T/C [23] 0.06% | viability, T/C [24] 5.74% | viability, T/C [26] 4.43% | viability, T/C [27] 0.22% | viability, T/C [28] 0.39% | viability, T/C [29] 0.18% | viability, T/C [30] 0.72%
0.509 nM: IC50 (second compound 1 µM)
0.525 nM: IC50 (second compound 3.16 µM)

CC(C)CC(NC(=O)CNC(=O)c1cc(Cl)ccc1Cl)B1OC(=O)CC(CC(=O)O)(C(=O)O)O1 (stereo not given) + NC1CCC(NC2CC2c2ccccc2)CC1
4.9 nM: IC50 (second compound 1 µM)
5.31 nM: IC50 (second compound 0.1 µM)
4.85 nM: IC50 (second compound 10 µM)
inactive: viability, T/C [1] 105% | viability, T/C [2] 111% | viability, T/C [3] 85.9% | viability, T/C [7] 99.8% | viability, T/C [8] 106% | viability, T/C [9] 80.4% | viability, T/C [13] 104% | viability, T/C [14] 99.4% | viability, T/C [15] 78.2% | viability, T/C [19] 108% | viability, T/C [20] 111% | viability, T/C [21] 88% | viability, T/C [25] 103% | viability, T/C [26] 96.4% | viability, T/C [27] 74.5%
5.02 nM: IC50 (second compound 0.316 µM)
active: viability, T/C [4] 6.15% | viability, T/C [5] 0.37% | viability, T/C [6] 0.25% | viability, T/C [10] 4.86% | viability, T/C [11] 0.4% | viability, T/C [12] 0.15% | viability, T/C [16] 4.23% | viability, T/C [17] 0.34% | viability, T/C [18] 0.23% | viability, T/C [22] 5.7% | viability, T/C [23] 0.29% | viability, T/C [24] 0.28% | viability, T/C [28] 8.66% | viability, T/C [29] 0.32% | viability, T/C [30] 0.38%
5.38 nM: IC50 (second compound 3.16 µM)

COc1cc(Nc2ncc3c(n2)-c2ccc(Cl)cc2C(c2c(F)cccc2OC)=NC3)ccc1C(=O)O + NC1CCC(NC2CC2c2ccccc2)CC1
15.2 nM: IC50 (second compound 3.16 µM)
5.87 nM: IC50 (second compound 0.1 µM)
42.1 nM: IC50 (second compound 10 µM)
74.5 nM: IC50 (second compound 1 µM)
inactive: viability, T/C [3] 49.1% | viability, T/C [4] 54.5% | viability, T/C [5] 45.8% | viability, T/C [6] 41.7% | viability, T/C (second compound 0.1 µM, first compound 0.316 µM) 44.8% | viability, T/C (second compound 0.1 µM, first compound 1 µM) 46.7% | viability, T/C [9] 54.4% | viability, T/C [10] 56.7% | viability, T/C [11] 50.3% | viability, T/C [12] 45% | viability, T/C (second compound 0.316 µM, first compound 0.316 µM) 45.2% | viability, T/C (second compound 0.316 µM, first compound 1 µM) 46.2% | viability, T/C [15] 45.7% | viability, T/C [16] 54.1% | viability, T/C [17] 51.5% | viability, T/C [18] 49.8% | viability, T/C (second compound 1 µM, first compound 0.316 µM) 41.8% | viability, T/C (second compound 1 µM, first compound 1 µM) 38% | viability, T/C [21] 55.2% | viability, T/C [22] 50.2% | viability, T/C [23] 50.1% | viability, T/C [24] 44.9% | viability, T/C (second compound 3.16 µM, first compound 0.316 µM) 39.1% | viability, T/C (second compound 3.16 µM, first compound 1 µM) 41.8% | viability, T/C [27] 48.8% | viability, T/C [28] 53.9% | viability, T/C [29] 50.5% | viability, T/C [30] 46.9% | viability, T/C (second compound 10 µM, first compound 0.316 µM) 36.2% | viability, T/C (second compound 10 µM, first compound 1 µM) 36.7%
34 nM: IC50 (second compound 0.316 µM)
